Results taken from article PMC7380166, “How to Study the Metabolism of New Psychoactive Substances for the Purpose of Toxicological Screenings—A Follow-Up Study Comparing Pooled Human Liver S9, HepaRG Cells, and Zebrafish Larvae” (Frontiers in Chemistry, 2020).

Experiments:
CYP2A6 = target: T1, CYP2A6 (Homo sapiens, UniProt P11509); experiment: Monooxygenases activity screening, CYP2A6; type: in vitro ADME; set-up: key: +, detected; –: −, not detected; conditions: 25 μM 4F-MDMB-BINACA, 50 pmol/ml enzyme, 30 min, 37°C, duplicate
T1 construct: purchased Corning; host or cells: baculovirus-transfected insect cell microsomes (Supersomes)
T1 sequence (P11509 1-494): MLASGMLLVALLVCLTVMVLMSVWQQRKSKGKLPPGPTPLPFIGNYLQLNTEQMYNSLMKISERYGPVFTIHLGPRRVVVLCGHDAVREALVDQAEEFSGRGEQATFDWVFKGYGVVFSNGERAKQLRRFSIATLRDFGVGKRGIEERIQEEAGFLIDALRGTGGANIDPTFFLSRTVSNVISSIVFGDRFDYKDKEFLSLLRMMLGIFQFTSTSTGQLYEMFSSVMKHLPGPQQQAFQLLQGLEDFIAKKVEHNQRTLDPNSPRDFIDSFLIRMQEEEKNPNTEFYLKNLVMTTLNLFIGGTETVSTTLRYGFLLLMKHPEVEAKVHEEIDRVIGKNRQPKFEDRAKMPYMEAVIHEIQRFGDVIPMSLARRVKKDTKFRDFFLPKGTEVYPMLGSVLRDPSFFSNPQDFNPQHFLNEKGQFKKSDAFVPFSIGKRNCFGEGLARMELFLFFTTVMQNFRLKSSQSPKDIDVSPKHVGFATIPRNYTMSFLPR
Description: (§1) According to an established protocol (Wagmann et al., [2016]), the final volume per reaction tube was 50 μl with a final 4F-MDMB-BINACA concentration of 25 μM and enzyme concentrations of 50 pmol/ml for CYP1A2, CYP2A6, CYP2B6, CYP2C8, CYP2C9, CYP2C19, CYP2D6, CYP2E1, CYP3A4, and CYP3A5, respectively, or 0.25 mg protein/ml for FMO3. Furthermore, the reaction mixture contained 90 mM phosphate buffer (pH 7.4), superoxide dismutase (200 U/ml), isocitrate (5 mM), MgCl2 (5 mM), isocitrate dehydrogenase (0.5 U/ml), and NADP^+ (1.2 mM). The phosphate buffer was replaced with Tris buffer (90 mM) for incubations with CYP2A6 and CYP2C9 according to the manufacturer's recommendation. All incubations were performed at 37°C for 30 min and terminated by adding 50 μl of ice-cold acetonitrile. Afterwards, the mixtures were centrifuged at 18,407 × g for 5 min, 70 μl of the supernatants was transferred into autosampler vials, and 1 μl was injected onto the LC-HRMS/MS system. Positive control incubations were performed with pHLM (1 mg microsomal protein/ml), and negative controls without enzyme were prepared to identify non-metabolically formed compounds. All incubations were done in duplicate.

CYP3A5 = target: T2, CYP3A5 (Homo sapiens, UniProt P20815); experiment: Monooxygenases activity screening, CYP3A5; type: in vitro ADME; set-up: key: +, detected; –: −, not detected; conditions: 25 μM 4F-MDMB-BINACA, 50 pmol/ml enzyme, 30 min, 37°C, duplicate
T2 construct: purchased Corning; host or cells: baculovirus-transfected insect cell microsomes (Supersomes)
T2 sequence (P20815 whole entry): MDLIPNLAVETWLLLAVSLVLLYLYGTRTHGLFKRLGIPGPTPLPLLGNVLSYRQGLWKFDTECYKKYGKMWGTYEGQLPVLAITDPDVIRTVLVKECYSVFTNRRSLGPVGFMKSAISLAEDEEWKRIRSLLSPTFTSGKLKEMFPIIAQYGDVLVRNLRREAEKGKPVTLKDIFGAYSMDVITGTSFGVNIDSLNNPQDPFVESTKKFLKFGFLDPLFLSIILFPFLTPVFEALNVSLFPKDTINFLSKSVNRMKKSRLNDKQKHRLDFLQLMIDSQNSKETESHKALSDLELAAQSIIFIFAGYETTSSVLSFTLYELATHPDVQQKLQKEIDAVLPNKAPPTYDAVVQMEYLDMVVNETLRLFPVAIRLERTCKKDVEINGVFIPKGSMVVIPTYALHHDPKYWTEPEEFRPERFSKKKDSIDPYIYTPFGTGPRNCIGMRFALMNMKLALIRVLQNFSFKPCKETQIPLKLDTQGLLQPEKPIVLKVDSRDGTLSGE
Description: as §1

CYP1A2 = target: T3, CYP1A2 (Homo sapiens, UniProt P05177); experiment: Monooxygenases activity screening, CYP1A2; type: in vitro ADME; set-up: key: +, detected; –: −, not detected; conditions: 25 μM 4F-MDMB-BINACA, 50 pmol/ml enzyme, 30 min, 37°C, duplicate
T3 construct: purchased Corning; host or cells: baculovirus-transfected insect cell microsomes (Supersomes)
T3 sequence (P05177 1-516): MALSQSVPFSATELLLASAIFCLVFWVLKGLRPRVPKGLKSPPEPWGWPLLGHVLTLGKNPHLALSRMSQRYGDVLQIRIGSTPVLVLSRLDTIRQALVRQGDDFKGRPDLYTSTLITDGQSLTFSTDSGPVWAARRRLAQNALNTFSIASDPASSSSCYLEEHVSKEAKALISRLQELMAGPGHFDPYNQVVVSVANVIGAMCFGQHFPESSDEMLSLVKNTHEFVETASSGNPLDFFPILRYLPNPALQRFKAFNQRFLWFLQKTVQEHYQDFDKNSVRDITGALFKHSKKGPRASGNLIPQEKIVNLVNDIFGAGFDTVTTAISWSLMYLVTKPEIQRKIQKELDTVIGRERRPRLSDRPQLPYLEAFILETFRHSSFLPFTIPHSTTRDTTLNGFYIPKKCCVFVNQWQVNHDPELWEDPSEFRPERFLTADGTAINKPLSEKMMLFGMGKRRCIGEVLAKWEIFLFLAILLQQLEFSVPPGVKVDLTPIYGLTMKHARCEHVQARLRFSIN
Description: as §1

CYP2C8 = target: T4, CYP2C8 (Homo sapiens, UniProt P10632); experiment: Monooxygenases activity screening, CYP2C8; type: in vitro ADME; set-up: key: +, detected; –: −, not detected; conditions: 25 μM 4F-MDMB-BINACA, 50 pmol/ml enzyme, 30 min, 37°C, duplicate
T4 construct: purchased Corning; host or cells: baculovirus-transfected insect cell microsomes (Supersomes)
T4 sequence (P10632 1-490): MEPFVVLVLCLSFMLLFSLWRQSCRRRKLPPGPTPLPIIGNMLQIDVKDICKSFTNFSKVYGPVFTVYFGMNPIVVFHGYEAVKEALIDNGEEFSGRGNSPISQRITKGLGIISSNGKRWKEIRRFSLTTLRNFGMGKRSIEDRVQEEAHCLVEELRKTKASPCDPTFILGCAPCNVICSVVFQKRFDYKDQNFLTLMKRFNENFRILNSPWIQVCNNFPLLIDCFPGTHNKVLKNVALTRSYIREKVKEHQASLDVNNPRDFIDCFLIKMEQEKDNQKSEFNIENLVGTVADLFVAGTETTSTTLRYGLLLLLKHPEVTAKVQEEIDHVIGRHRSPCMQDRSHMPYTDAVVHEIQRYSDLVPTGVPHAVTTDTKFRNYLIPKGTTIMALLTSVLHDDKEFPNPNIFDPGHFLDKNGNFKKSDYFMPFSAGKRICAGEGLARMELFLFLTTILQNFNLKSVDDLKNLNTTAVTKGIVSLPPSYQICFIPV
Description: as §1

CYP2C19 = target: T5, CYP2C19 (Homo sapiens, UniProt P33261); experiment: Monooxygenases activity screening, CYP2C19; type: in vitro ADME; set-up: key: +, detected; –: −, not detected; conditions: 25 μM 4F-MDMB-BINACA, 50 pmol/ml enzyme, 30 min, 37°C, duplicate
T5 construct: purchased Corning; host or cells: baculovirus-transfected insect cell microsomes (Supersomes)
T5 sequence (P33261 whole entry): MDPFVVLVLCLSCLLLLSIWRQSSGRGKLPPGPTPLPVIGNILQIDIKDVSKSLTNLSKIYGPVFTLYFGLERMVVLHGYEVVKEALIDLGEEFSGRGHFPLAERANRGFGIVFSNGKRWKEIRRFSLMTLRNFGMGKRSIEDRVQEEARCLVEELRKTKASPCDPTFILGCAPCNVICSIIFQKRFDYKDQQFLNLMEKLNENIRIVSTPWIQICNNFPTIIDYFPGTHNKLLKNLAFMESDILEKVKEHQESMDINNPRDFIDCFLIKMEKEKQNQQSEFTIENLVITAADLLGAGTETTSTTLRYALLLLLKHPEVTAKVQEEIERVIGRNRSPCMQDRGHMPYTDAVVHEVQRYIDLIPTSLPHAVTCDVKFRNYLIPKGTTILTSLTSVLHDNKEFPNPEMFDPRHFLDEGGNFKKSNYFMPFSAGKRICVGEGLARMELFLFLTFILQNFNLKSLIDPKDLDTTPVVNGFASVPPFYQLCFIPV
Description: as §1

zebrafish larvae = experiment: Zebrafish larvae exposure, metabolite identification by LC-HRMS/MS; conditions: for Absolute peak area, Zebrafish larvae [25 μM]: 25 μM 4F-MDMB-BINACA in medium, larvae 4 dpf, larvae extract, one replicate of n = 3, n.d. = not detected

Row | SMILES | Detection of metabolite in incubation with CYP2A6 (CYP2A6) | Detection of metabolite in incubation with CYP3A5 (CYP3A5) | Detection of metabolite in incubation with CYP1A2 (CYP1A2) | Detection of metabolite in incubation with CYP2C8 (CYP2C8) | Detection of metabolite in incubation with CYP2C19 (CYP2C19) | Absolute peak area, Zebrafish larvae [25 μM] (zebrafish larvae; 24 h) | Number of phase I metabolites detected, Zebrafish larvae (zebrafish larvae; 25 μM in medium, 24 h) | Number of phase II metabolites detected, Zebrafish larvae (zebrafish larvae; 25 μM in medium, 24 h) | Relative number of matches with the four most abundant signals in human plasma, Zebrafish larvae (zebrafish larvae; plasma, larvae exposed to 25 μM) [%] | Relative number of matches with the four most abundant signals in human urine, Zebrafish larvae (zebrafish larvae; urine, larvae exposed to 25 μM) [%]
1 | O=C(O)c1nn(CCCCF)c2ccccc12 [MB1] | – | – | – | – | – |  |  |  |  | 
2 | COC(=O)[C@@H](NC(=O)c1nn(CCCCO)c2ccccc12)C(C)(C)C [MB11] | – | + | – | + | – | 2.92E+06 |  |  |  | 
3 | CC(C)(C)C(NC(=O)c1nn(CCCCF)c2ccccc12)C(=O)O (stereo not shown) [MB8] | – | – | – | – | – | 1.73E+07 |  |  |  | 
4 | COC(=O)C(NC(=O)c1nn(CCCCF)c2ccccc12)C(C)(C)C (stereo not shown) [4F-MDMB-BINACA, methyl 2-[1-(4-fluorobutyl)-1H-indazole-3-carbonyl]amino-3,3-dimethylbutanoate] |  |  |  |  |  | 2.89E+09 | 14 | 4 | 100 | 75
5 | COC(=O)[C@@H](NC(=O)c1nn(CCCCF)c2ccccc12)C(C)(C)CO [MB16] | – | + | – | – | – | 5.98E+06 |  |  |  | 
6 | COC(=O)[C@@H](NC(=O)c1n[nH]c2ccccc12)C(C)(C)C [MB4] | – | + | + | – | + | 7.45E+06 |  |  |  | 
